Assay results taken from ChEMBL document CHEMBL6103585, “Construction and activity evaluation of novel CHS inhibitors against fungal infections” (Eur J Med Chem, 2025).
Values after ≈ are worked out from the molar mass of the structure shown. Active and inactive are the calls of the source. No cut-off for these calls is given here.

Assays:
Candida albicans [1] = assay: In vivo antifungal activity against Candida albicans 901 infected in mouse model assessed as increase in CD4positive expression level in presence of BPE; type: functional, organism-based
Candida albicans [2] = assay: (§1) In vivo antifungal activity against Candida albicans 901 infected in mouse model assessed as body weight gain at 5 microg/g, iv pre-infected with fungi by intravenous injection followed by compound administration and measured on day 8; type: functional, organism-based; conditions: dose 5.0 µg/g, time 8.0 day
Candida albicans [3] = assay: Antifungal activity against Candida albicans ATCC SC5314 assessed as fungal growth inhibition incubated for 72 hrs by broth microdilution method; type: functional
[4] = Toxicity in mouse infected with Candida albicans 901 assessed as change in CRE level in presence of BPE (reference value: 21.5 +/-1.7 umol/L); conditions: in vivo
Candida albicans [5] = assay: as §1, with “decrease in IFN-gamma protein expression level” for “body weight gain”, “8 in presence of 1-MT by Western blotting analysis” for “8”; type: functional, organism-based; conditions: dose 5.0 µg/g, time 8.0 day
Candida albicans [6] = assay: Antifungal activity against fluconazole-resistant Candida albicans 901 assessed as reduction in fungal growth incubated for 72 hrs by broth microdilution method; type: functional
Candida albicans [7] = assay: (§2) In vivo antifungal activity against Candida albicans 901 infected in mouse model assessed as decrease in IL-2 protein expression level at 5 microg/g, iv pre-infected with fungi by intravenous injection followed by compound administration and measured on day 8 by Western blotting analysis; type: functional, organism-based; conditions: dose 5.0 µg/g, time 8.0 day
Candida tropicalis = assay: Antifungal activity against Candida tropicalis ATCC 1369 assessed as fungal growth inhibition incubated for 72 hrs by broth microdilution method; type: functional
Candida albicans [8] = assay: Antifungal activity against fluconazole-resistant Candida albicans 904 assessed as reduction in fungal growth incubated for 72 hrs by broth microdilution method; type: functional
Candida albicans [9] = assay: as §2, with “8 in presence of 1-MT” for “8”; type: functional, organism-based; conditions: dose 5.0 µg/g, time 8.0 day
Candida albicans [10] = assay: In vivo antifungal activity against Candida albicans 901 infected in mouse model assessed as decrease in IFN-gamma protein expression level at 5 microg/g, iv pre-infected with fungi by intravenous injection followed by compound administration and measured on day 8 by Western blotting analysis; type: functional, organism-based; conditions: dose 5.0 µg/g, time 8.0 day
Aspergillus fumigatus = assay: Antifungal activity against Aspergillus fumigatus KM 8001 assessed as fungal growth inhibition incubated for 72 hrs by broth microdilution method; type: functional
[11] = Toxicity in mouse infected with Candida albicans 901 assessed as change in AST level in presence of BPE (reference value: 76.1 +/-4.2 IU/L); conditions: in vivo
Candida albicans [12] = assay: Induction of apoptosis in Candida albicans ATCC SC5314 assessed as early apoptotic cells by V-FITC/PI staining based flow cytometric analysis (reference value: 3.51%); type: functional
Candida albicans [13] = assay: Antifungal activity against fluconazole-resistant Candida albicans 632 assessed as reduction in fungal growth incubated for 72 hrs by broth microdilution method; type: functional
Candida albicans [14] = assay: as §2, with “8 in presence of BPE” for “8”; type: functional, organism-based; conditions: dose 5.0 µg/g, time 8.0 day
[15] = Toxicity in mouse infected with Candida albicans 901 assessed as change in BUN level in presence of BPE (reference value: 11.4 +/-1.5 mmol/L); conditions: in vivo
[16] = Toxicity in mouse infected with Candida albicans 901 assessed as change in ALT level in presence of BPE (reference value: 42.8 +/-3.9 IU/L); conditions: in vivo

SMILES: O=C(CNC(=O)c1nc2ccc(Cl)cc2c(=O)[nH]1)NCC(=O)c1ccccc1
- Activity (Candida albicans [1]): Active
- Activity (Candida albicans [2]): Active
- MIC50 (Candida albicans [3]): 1 µg/mL (≈ 2.51 µM)
- Activity [4]: 16.3 µmol/L
- Activity (Candida albicans [5]): Active
- MIC50 (Candida albicans [6]): 4 µg/mL (≈ 10 µM)
- Activity (Candida albicans [7]): Active
- MIC50 (Candida tropicalis): 0.5 µg/mL (≈ 1.25 µM)
- MIC50 (Candida albicans [8]): 4 µg/mL (≈ 10 µM)
- Activity (Candida albicans [9]): Active
- Activity (Candida albicans [10]): Active
- MIC50 (Aspergillus fumigatus): 2 µg/mL (≈ 5.01 µM)
- Activity [11]: 70.4 IU/L
- Activity (Candida albicans [12]): 14.9%
- MIC50 (Candida albicans [13]): 2 µg/mL (≈ 5.01 µM)
- Activity (Candida albicans [14]): Active
- Activity [15]: 9.5 mmol/L
- Activity [16]: 43.6 IU/L
